Assay results taken from ChEMBL document CHEMBL4665754, “Discovery of a coumarin derivative as Nrf2 activator mitigating oxidative stress and fibrosis in mesangial cells under high glucose” (Bioorg Med Chem Lett, 2020).
Calls of active or inactive are those of the source. The calls are words filed in the database; no cut-off is given here.

What was measured:
[1] = target: T1, Keap1/Nrf2 (Homo sapiens) (UniProt Q16236+Q14145); assay: Disruption of interaction between Nrf2/Keap1 (unknown origin) in mesangial cells assessed as reduction in high glucose-induced collagen IV secretion at 10 uM by ELISA; format: cell-based; conditions: Mesangial cell
T1 sequence (Q14145 whole entry, looked up, one chain of several): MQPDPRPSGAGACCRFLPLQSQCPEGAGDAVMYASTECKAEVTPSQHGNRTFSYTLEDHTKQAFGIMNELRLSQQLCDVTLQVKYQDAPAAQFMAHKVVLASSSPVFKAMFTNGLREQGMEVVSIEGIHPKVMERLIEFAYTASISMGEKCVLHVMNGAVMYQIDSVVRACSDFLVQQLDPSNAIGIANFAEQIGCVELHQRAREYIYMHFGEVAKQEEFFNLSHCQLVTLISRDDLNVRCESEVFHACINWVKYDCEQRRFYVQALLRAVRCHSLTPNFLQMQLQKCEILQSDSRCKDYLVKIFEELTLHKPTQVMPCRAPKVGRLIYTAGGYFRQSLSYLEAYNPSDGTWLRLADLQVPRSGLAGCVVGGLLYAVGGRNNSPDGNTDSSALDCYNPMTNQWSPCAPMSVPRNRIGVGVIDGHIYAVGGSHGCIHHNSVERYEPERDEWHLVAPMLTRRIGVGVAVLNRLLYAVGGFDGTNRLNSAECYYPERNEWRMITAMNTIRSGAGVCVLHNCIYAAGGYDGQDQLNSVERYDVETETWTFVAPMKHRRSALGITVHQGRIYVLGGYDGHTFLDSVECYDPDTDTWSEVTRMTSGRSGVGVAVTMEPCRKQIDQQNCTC

[2] = target: T1, Keap1/Nrf2 (Homo sapiens); assay: Disruption of interaction between Nrf2/Keap1 (unknown origin) in mesangial cells assessed as reduction in high glucose-induced intracellular MDA level at 10 uM; format: cell-based; conditions: Mesangial cell
Mesangial cell [3] = assay: Inhibition of glucose-induced cell proliferation in Mesangial cell (unknown origin) at 10 uM by CCK8 assay; format: functional, tissue-based
[4] = Cytotoxicity against Mesangial cell (unknown origin) at 0.01 to 100 uM by CCK8 assay; format: tissue-based; conditions: dose 0.01-100 µM
[5] = target: T2, Nuclear factor erythroid 2-related factor 2 (Homo sapiens) (UniProt Q16236); assay: Activation of Nrf2 (unknown origin) in mesangial cell assessed as increase in translocation of Nrf2 into nuclei from cytosol at 5 to 10 uM in presence of high glucose by Western blot based densitometric assay; format: tissue-based; conditions: dose microM 5-10
T2 sequence (whole entry): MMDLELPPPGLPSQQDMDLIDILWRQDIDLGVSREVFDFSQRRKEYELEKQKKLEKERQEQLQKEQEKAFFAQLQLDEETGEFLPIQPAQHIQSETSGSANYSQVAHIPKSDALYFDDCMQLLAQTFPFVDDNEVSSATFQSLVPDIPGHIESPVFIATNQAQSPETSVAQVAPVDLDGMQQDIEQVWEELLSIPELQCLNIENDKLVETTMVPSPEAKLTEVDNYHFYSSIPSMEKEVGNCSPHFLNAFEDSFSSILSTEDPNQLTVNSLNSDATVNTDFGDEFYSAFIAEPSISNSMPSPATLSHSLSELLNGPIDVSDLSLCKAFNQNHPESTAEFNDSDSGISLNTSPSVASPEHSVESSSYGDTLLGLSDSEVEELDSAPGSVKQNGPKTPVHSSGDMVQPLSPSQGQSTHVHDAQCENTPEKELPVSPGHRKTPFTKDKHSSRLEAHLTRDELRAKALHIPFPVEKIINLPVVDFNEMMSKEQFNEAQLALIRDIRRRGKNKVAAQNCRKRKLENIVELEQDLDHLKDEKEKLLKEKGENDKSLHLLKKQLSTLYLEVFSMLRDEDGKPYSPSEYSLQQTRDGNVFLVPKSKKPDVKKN

[6] = target: T1, Keap1/Nrf2 (Homo sapiens); assay: Disruption of interaction between Nrf2/Keap1 (unknown origin) in mesangial cell assessed as decrease in Keap1 immunoprecipitate at 10 uM in presence of high glucose by Co-immunoprecipitation assay; format: tissue-based
[7] = target: T1, Keap1/Nrf2 (Homo sapiens); assay: Disruption of interaction between Nrf2/Keap1 (unknown origin) in mesangial cell assessed as increase of Nrf2 immunoprecipitate at 10 uM in presence of high glucose by Co-immunoprecipitation assay; format: tissue-based
[8] = target: T1, Keap1/Nrf2 (Homo sapiens); assay: Disruption of interaction between Nrf2/Keap1 (unknown origin) in mesangial cells assessed as reduction in high glucose-induced fibronectin secretion at 10 uM in presence of 10 uM ML385 by ELISA; format: cell-based; conditions: Mesangial cell
[9] = target: T1, Keap1/Nrf2 (Homo sapiens); assay: Disruption of interaction between Nrf2/Keap1 (unknown origin) in mesangial cells assessed as reduction in high glucose-induced collagen IV secretion at 10 uM in presence of 10 uM ML385 by ELISA; format: cell-based; conditions: Mesangial cell
[10] = target: T1, Keap1/Nrf2 (Homo sapiens); assay: Disruption of interaction between Nrf2/Keap1 (unknown origin) in mesangial cells assessed as reduction in high glucose-induced fibronectin secretion at 5 to 10 uM by ELISA; format: cell-based; conditions: Mesangial cell, dose microM 5-10
[11] = target: T1, Keap1/Nrf2 (Homo sapiens); assay: Disruption of interaction between Nrf2/Keap1 (unknown origin) in mesangial cells assessed as reduction in high glucose-induced collagen IV secretion at 5 to 10 uM by ELISA; format: cell-based; conditions: Mesangial cell, dose microM 5-10
[12] = target: T1, Keap1/Nrf2 (Homo sapiens); assay: Disruption of interaction between Nrf2/Keap1 (unknown origin) in mesangial cells assessed as reduction in high glucose-induced intracellular MDA level at 10 uM in presence of 10 uM ML385; format: cell-based; conditions: Mesangial cell
[13] = target: T1, Keap1/Nrf2 (Homo sapiens); assay: Disruption of interaction between Nrf2/Keap1 (unknown origin) in mesangial cells assessed as reduction in high glucose-induced intracellular ROS production at 10 uM in presence of 10 uM ML385 by DCFH-DA assay; format: cell-based; conditions: Mesangial cell
[14] = target: T1, Keap1/Nrf2 (Homo sapiens); assay: Disruption of interaction between Nrf2/Keap1 (unknown origin) in mesangial cells assessed as reduction in high glucose-induced intracellular MDA level at 5 to 10 uM; format: cell-based; conditions: Mesangial cell, dose microM 5-10
[15] = target: T1, Keap1/Nrf2 (Homo sapiens); assay: Disruption of interaction between Nrf2/Keap1 (unknown origin) in mesangial cells assessed as reduction in high glucose-induced intracellular ROS production at 5 to 10 uM by DCFH-DA assay; format: cell-based; conditions: Mesangial cell, dose microM 5-10
[16] = target: T2, Nuclear factor erythroid 2-related factor 2 (Homo sapiens); assay: Activation of Nrf2 (unknown origin) in mesangial cell assessed as increase in transcription ability of Nrf2 binding to ARE by measuring increase luciferase activity at 5 to 10 uM in presence of high glucose by luciferase reporter gene assay; format: tissue-based; conditions: dose microM 5-10
[17] = target: T2, Nuclear factor erythroid 2-related factor 2 (Homo sapiens); assay: Activation of Nrf2 (unknown origin) in mesangial cell at 5 and 10 uM in presence of high glucose by Western blot based densitometric assay; format: tissue-based; conditions: dose microM 5-10
[18] = target: T2, Nuclear factor erythroid 2-related factor 2 (Homo sapiens); assay: Activation of Nrf2 (unknown origin) in mesangial cell assessed as strong red fluorescence at 5 and 10 uM in presence of high glucose by immunofluorescence staining based assay; format: tissue-based; conditions: dose microM 5-10
Mesangial cell [19] = assay: Inhibition of glucose-induced cell proliferation in Mesangial cell (unknown origin) at 5 and 10 uM by CCK8 assay; format: functional, tissue-based; conditions: dose microM 5-10

SMILES	inhibition [1]	inhibition [2]	inhibition (Mesangial cell [3])	Activity [4]	Activity [5]	Activity [6]	Activity [7]	inhibition [8]	inhibition [9]	inhibition [10]	inhibition [11]	inhibition [12]	inhibition [13]	inhibition [14]	inhibition [15]	Activity [16]	Activity [17]	Activity [18]	inhibition (Mesangial cell [19])
O=c1ccc2ccc(Oc3cc4ccc(O)cc4oc3=O)cc2o1 [EDGEWORIN]	Active	Active	Active	Non-Toxic															
COc1cc2cc(Oc3ccc4ccc(=O)oc4c3)c(=O)oc2cc1O[C@@H]1O[C@H](CO)[C@@H](O)[C@H](O)[C@H]1O [DAPHNORIN]				Non-Toxic	Active	Active	Active	inactive	inactive	Active	Active	inactive	inactive	Active	Active	Active	Active	Active	Active
O=c1ccc2ccc(Oc3cc4ccc(=O)oc4cc3O)cc2o1	Active	Active	Active	Non-Toxic															
COc1cc2cc(Oc3ccc4ccc(=O)oc4c3)c(=O)oc2cc1O [DAPHNORETIN]	Active	Active	Active	Non-Toxic															
